Experimental data taken from patent US6376211B1, “Agents and methods for inhibiting F1/F0 ATPase” (XOMA Technology Ltd., priority 1999, dated 2002).

What was measured:
whole cells [1] = assay: Metabolic oxidation-reduction indicator dye (Alamar Blue) assay of whole cells (general description); assay type: cell-based; details: at a less than fully cytotoxic concentration
Description: (§1) The effect of test compounds on ATP synthase activity of whole cells can also optionally be assayed using any membrane potential indicator dye or metabolic oxidation-reduction indicator dye known in the art. See Loew, Chapter 8 in Biomembrane Electrochemistry, Blank and Vodyanoy, eds., American Chemical Society, Washington, DC (1994), pages 151-173. Particularly preferred dyes are membrane potential dyes such as DiOC6(3), JC-1, rhodamine 123, or MitoTracker® reduced dyes [Molecular Probes, Eugene, Oreg.]. […] Other preferred dyes are metabolic oxidation-reduction indicator dyes such as Alamar Blue™ [AccuMed Int'l, Westlake, Ohio]. […] See U.S. Provisional Application Ser. No. 60/143,290 filed Jul. 12, 1999 and corresponding co-owned, concurrently filed U.S. application Ser. No. 09/543,955, both of which are incorporated herein by reference and U.S. Provisional Application Ser. No. 60/143,485 filed Jul. 12, 1999 and corresponding U.S. application Ser. No. 09/404,926 filed Sep. 24, 1999 and International Application No. PCT/US99/22361 filed Sep. 24, 1999, all of which are incorporated herein by reference. Iterative screening for compound selection may employ one or combination of assays for testing.

E. coli O111:B4 [2] = assay: In vitro bactericidal activity; assay type: cell-based
whole cells [3] = assay: Membrane potential indicator dye assay of whole cells (general description); assay type: cell-based; details: retention of the dye notwithstanding onset of loss of viability at the same concentration
Description: as §1

E. coli O111:B4 [4] = assay: Membrane potential indicator dye DiOC6(3) assay; assay type: cell-based
Description: (§2) The effect of antibacterial BPI protein products on the activity of bacterial ATP synthase as measured by a metabolic oxidation-reduction indicator dye and a membrane potential indicator dye was determined as described in Example 2 of U.S. Provisional Application Ser. No. 60/143,290 filed Jul. 12, 1999 and corresponding co-owned, concurrently filed U.S. application Ser. No. 09/543,955, both of which are incorporated herein by reference and Example 9 of U.S. Provisional Application Ser. No. 60/143,485 filed Jul. 12, 1999 and corresponding U.S. application Ser. No. 09/404,926 filed Sep. 24, 1999 and International Application No. PCT/US99/22361 filed Sep. 24, 1999, all of which are incorporated herein by reference.

E. coli = assay: Metabolic oxidation-reduction indicator dye Alamar Blue assay; assay type: cell-based
Description: as §2

E. coli ATP synthase = details: bacterial membrane preparations; about ... and higher
Description: The effect of antibacterial BPI protein products on the ATP synthesis activity of an E. coli ATP synthase was determined as follows. Bacterial membranes were prepared as follows. A 400 mL culture of E. coli was grown overnight in TSB at 37° C. with shaking. Cells were harvested by centrifugation for 10 minutes at 1000×g, followed by washing with 20 mL of PBS and recentrifugation. Cells were resuspended in 4 ml of 25 mM HEPES, pH 7.6, 0.1 M KCl, 0.1 M EDTA, 12.5 mM MgCl2, 10% glycerol, 0.1% NP40. Then 50 μl of lysozyme (50 mg/ml) was added and the cells were incubated for 30 minutes on ice. Cells were disrupted by sonication in 3×30-second pulses. Cells were placed on ice between pulses. DNAse I was added to a 10 μg/mL final concentration (GIBCO Life Technologies, Gaithersburg, Md.) and the homogenate was left on ice for 30 minutes. […] The final pellet was resuspended in 2 mL 10 mM Tris-HC1, pH 7.0, 0.1 mM EDTA, 20% glycerol and protein concentration was determined by standard Bradford assay.
In a 96 well plate (Microlite 1, DYNEX Technologies, Chantilly Va.), 25 μg bacterial membranes were diluted into 100 μl of 55.5 mM Tris-HC1, pH 7.8, 0.222 mM MgSO4 plus the compound to be tested (XMP.391 (SEQ ID NO: 4) and rBPI21 at concentrations ranging from 40 μg/mL to 0.625 μg/mL). […] Assays were read in Endpoint mode with 30 reads per well.

[5] = target: T1, mammalian mitochondrial ATP synthase; assay: Phosphatase activity of ATP synthase in mitochondrial membrane preparations (mouse liver); assay type: biochemical; details: 1.35 μM rBPI21, 0.082 and 0.482 μM XMP.391, 0.076 and 0.553 μM XMP.416
T1 construct: ATP synthase enzymic activity in mitochondrial preparations; from tissue; host or cells: mouse liver mitochondria, deoxycholate-lysed membrane pellet
Description: The effect of BPI protein products on ATP synthase enzymic activity in mitochondrial preparations was evaluated. Mitochondrial membrane preparations were prepared as follows. Male laboratory mice (Mus musculus) were sacrificed by cervical dislocation and their livers were immediately excised. The gall bladder and connective tissues were removed and the livers were washed in 0.25 M sucrose. Wet liver weight was determined after blotting the washed liver on absorbent paper. All subsequent steps of the fractionation procedure were performed on ice. The weighted livers were then homogenized with a Potter Elvehjem tissue homogenizer and six passes of a teflon pestle in 9 volumes of 0.25 M sucrose with protease inhibitors (2 μg/mL pepstatin A, 2 μg/mL aprotinin and 1 mM phenylmethylsulfonyl fluoride (PMSF). Liver homogenates were then centrifuged in a Beckman (Fullerton, Calif.) J2-21 centrifuge for 10 minutes at 600×g. The 600×g pellet (nuclei, unbroken cells and connective tissue) was discarded and the supernatant was subjected to further centrifugation. The 600×g supernatant was centrifuged at 7000×g for 10 minutes to yield a crude mitochondrial pellet.
Crude mitochondria were resuspended in 3 volumes of the original liver weight with 0.25 M sucrose and centrifuged at 7000×g for 10 minutes. The supernatant was discarded and the procedure was repeated. […]

bacterial growth = details: cited from earlier work

Substance | pattern of metabolic oxidation-reduction activity relative to control cells (whole cells [1]) | in vitro bactericidal activity (E. coli O111:B4 [2]) | pattern of accumulation of membrane potential dye in cells (whole cells [3]) | accumulation and retention of membrane potential dye (E. coli O111:B4 [4]) | apparent metabolic activity relative to untreated controls (E. coli) | concentration at which synthesis of ATP from ADP is inhibited in a dose-dependent manner (E. coli ATP synthase) | inhibition of phosphatase activity of ATP synthase [5] | concentration required to produce a therapeutic effect (bacterial growth)
XMP.365: BPI-derived peptide, SEQ ID NO: 3; structure described in U.S. Pat. No. 5,858,974 (KWLIQLFHKK) | increased metabolic oxidation-reduction activity relative to control cells | has in vitro bactericidal activity against this strain | accumulation in cells of membrane potential dye in a peptide concentration-dependent manner | produced an accumulation and retention of the dye despite cell death | apparent increased metabolic activity |  |  | 
XMP.391: BPI-derived peptide, SEQ ID NO: 4 (KVGWLIQLFHKK) | increased metabolic oxidation-reduction activity relative to control cells |  |  |  | apparent increased metabolic activity | ≥ 1 µg/mL | inhibited the phosphatase activity | 
XMP.416: BPI-derived peptide, SEQ ID NO: 5 (KWLIQLFHKK) | increased metabolic oxidation-reduction activity relative to control cells |  |  |  |  |  | inhibited the phosphatase activity | 
gentamicin |  |  |  |  |  |  |  | 8 µg/mL
